How the values were obtained:
[1] = system: L. donovani promastigote forms; assay: In vitro activity against extracellular (promastigote) forms; assay type: cell-based, Leishmania donovani
Description: (§1) Methodology: Cultures of three Leishmania species, representative of the species causing each of the clinical forms of the disease, were used for these studies. Specifically, strains MCAN/ES/2001/UCM-1 O of L.infantum, isolated and characterised in Madrid from an infected dog; MHOM/BR/1975/M2904 of L.braziliensis, isolated in Brazil in a human case, and LCR-L 133 LRC of L.donovani. isolated in Jerusalem, Israel from a case of kala-azar […] (WHO Technical Reports Series 949. Geneva: WHO. March. The cultures of parasites come from an own collection which was prepared from a biobank project (Biobank and Characterisation Unit of Strains and Species of Trypanosomatids, Responsible for Human, Animal and Plant Pathologies, Cgl-2008-03687-E/Bos.), and are available on request.
(§2) The promastigote forms of the three species studied were cultured in vitro in sterility in single-phase MTL culture medium (Medium Trypanosomes Liquid) made from Hank’s Balanced Salts (Sigma-Aldrich, H6136) enriched with 10% (v/v) of Fetal Bovine Serum (SBF-1) inactivated at 56° C./ 30 minutes. The parasite inoculum to initiate the culture was 5 × 10^4 cells/ml in 5 ml medium in 25 cm^2 Falcon® plastic flasks and kept in an oven at 28° C. The cultures were performed routinely, achieving exponential growth of the flagellates until obtaining the cell mass necessary for the subsequent studies. Both promastigote forms and amastigote forms were used to conduct the assays.
(§3) The promastigote forms of the three Leishmania strains, cultured in the manner described above, were harvested in their exponential growth phase by centrifugation at 400 g for 10 min. The number of parasites was counted in a Neubauer Haemocytometer Counting Chamber and were inoculated in a 24-well plate at a concentration of 5 ×10^4 parasites/well.
(§4) The compounds to be assayed were dissolved in DMSO at a concentration of 0.01% (v/v), concentration at which this solvent is not toxic nor has any effect on the growth of parasites. The compounds were added to the culture medium at final concentrations of 100, 50, 25 and 12.5 µM. […] M. et al. Med. Chem. 2011. 54. 970-979].

J774.2 macrophages = assay: Macrophage toxicity by flow cytometry; assay type: cell-based; settings: J774.2 macrophages, 72 h of culture
Procedure: Macrophage toxicity: this study used the experimental model designed by the group of inventors [I. Ramírez-Macías. et. al. J. Antimicrob. Chemother. 2011, 66(4): 813-819] wherein flow cytometry is used. Briefly, macrophages from line J774.2 (ECACC number 91051511, obtained from a BALB/c female […] tumour in 1968) were deposited in a steriling tube and centrifuged at 120 g for 5 minutes. The supernatant was discarded and the cells were resuspended in MEM + Glutamine medium with 20% SBF (fetal bovine serum). 1×10^4 cells per well were then deposited from a 24-well titration plate and incubated for 24-48 h at 37° C. in a humid atmosphere enriched with 5% CO2 to fix them. […] After 72 h of incubation, the samples were prepared for reading on a flow cytometer. Specifically, 100 µl of propidium iodide solution (100 µg/ml) was added to each well and incubated for 10 min at 28° C. in the dark. Subsequently, 100 µl/well of fluorescein diacetate (FDA) (Sigma Chemical Co) in solution (100 ng/mL) was added and incubation was repeated under the same conditions for 10 minutes. Cells were recovered by centrifugation at 400 g for 10 minutes and washing the precipitate with PBS. Finally, the results were analysed in a FACS Vantage flow cytometer (Becton Dickinson) taking into account that the cells with the plasma membrane intact emit green colour as the esterases act on the FDA, while the cells that have lost the integrity of the membrane and are not viable, emit in the range close to 580 nm by penetrating the propidium iodide by passive diffusion and specifically binding to the nucleic acids thereof. Thus, to calculate the percentage of viability, the number of dead cells compared to controls was taken into account.

[2] = system: L. braziliensis promastigote forms; assay: In vitro activity against extracellular (promastigote) forms; assay type: cell-based, Leishmania braziliensis
Description: as §1, §2, §3, §4

[3] = system: L. infantum promastigote forms; assay: as above; assay type: cell-based, Leishmania infantum
Description: as §1, §2, §3, §4

[4] = system: L. braziliensis amastigote forms; assay: In vitro activity against intracellular (amastigote) forms in macrophages; assay type: cell-based, Leishmania braziliensis
Description: as §1
(§5) For the study of the in vitro effect on intracellular forms of Leishmania, the experimental model designed by the group of the present inventors was used [Sánchez-Moreno. M. et al. Med. Chem. 2012, 55, 9900-9913; Sánchez-Moreno. M. et al. J. Antimicrob. Chemother. 2012, 67, 387-397]. The macrophages were detached from the culture flask where they were attached by dry blows. To do this, it was incubated in cold for 5 minutes and after that the flask was hit with the palm of the hand until the cells were detached from the flask. Then, they were passed to a 25 ml capacity steriling conical bottom flask (Deltalab) to centrifuge them at 120 g for 5 minutes, removing the supernatant and were counted in Neubauer’s chamber. Cells were suspended in RPMI medium at a concentration of 1×10^4 cells/well, then cultured in 24-well plates into which a 12 mm round slide had previously been placed into each well. For adherence, the cells were left 24 h at 37° C. in 5% CO2. Subsequently, the cells were infected in vitro by placing Leishmania cells at the rate of 10 parasites/macrophage according to [Sánchez-Moreno. M et al. Med. Chem. 2011, 54, 970-979]. […] The products were allowed to act for 72 hours of incubation.
(§6) After that time, the crystals were removed and fixed with methanol on a slide and allowed to dry, after which DPX microscopy mounting medium (Panreac®) was added to it. Once the preparations had been mounted, they were dyed with Giemsa by diluting Azur-Eosin-Methylene Blue solution according to Giemsa DC (Code 251338) with Sorensen buffer (1:10 dilution). The preparations were covered and allowed to colour for 20 minutes, after which they were washed with distilled water and then allowed to drain and dry vertically. Finally, the amastigote forms were counted with the aim of immersion in a total of 200 cells.

[5] = system: L. infantum amastigote forms; assay: as above; assay type: cell-based, Leishmania infantum
Description: as §1, §5, §6

[6] = system: L. donovani amastigote forms; assay: as above; assay type: cell-based, Leishmania donovani
Description: as §1, §5, §6

[7] = IC50 of macrophages / IC50 of parasite form

**Q.** What does the source list for “meglumine antimoniate [Glucantime, reference compound]”?
**A.** IC50 ([1]; 72 h): 18 ± 3.1 µM; Selectivity Index (SI) L. donvovani Promastigote forms [1, 7]: 0.7; IC50 (J774.2 macrophages): 15.2 ± 1 µM; IC50 ([2]; 72 h): 18 ± 3.1 µM; Selectivity Index (SI) L. brazilensis Promastigote forms [2, 7]: 0.6; IC50 ([3]; 72 h): 18 ± 3.1 µM; Selectivity Index (SI) L. infantum Promastigote forms [3, 7]: 0.8; IC50 ([4]; 72 h): 24.2 ± 2.6 µM; Selectivity Index (SI) L. brazilensis Amastigote forms [4, 7]: 0.6; IC50 ([5]; 72 h): 24.2 ± 2.6 µM; Selectivity Index (SI) L. infantum Amastigote forms [5, 7]: 0.6; IC50 ([6]; 72 h): 24.2 ± 2.6 µM; Selectivity Index (SI) L. donvovani Amastigote forms [6, 7]: 0.6

From US20230346769A1, “USE OF SIMPLE ACYCLIC POLYAMINES FOR THE TREATMENT OF DISEASES CAUSED BY PARASITES OF THE GENUS LEISHMANIA” (Universidad De Granada, priority 2020, published 2023)
